We go through two molecules from patent US20130152227A1, “ENHANCED DISEASE […] INTRODUCTION OF NH3” (priority 2010, published 2013).

Data set [1] concerns PR3. Description: RT-PCR / real-time qPCR of PR3 after foliar spray. The settings on record: for PR3 expression induction: 1 mM BTH. Type of data set: in vivo, Oryza sativa L. The text has this: (§1) To investigate the BTH- and INA-induced responses at the molecular level, we looked at the transcript expression levels of several rice defense-related genes, including PR1a, PR3, PR10, POX (peroxidase), and NH1. RT-PCR results of these genes for response to BTH treatment are shown in FIG. 5a and real-time quantitative PCR results in FIG. 5b. The input cDNA amounts were equalized first by using actin as the reference in FIG. 5a. Quantitative expression data in FIG. 5b are expressed as fold of actin gene expression. As expected, the NH3 levels in the nNT-NH3 plants (filled bar) are elevated by about 3- to 4-fold compared to Kit (open bar) control before treatment. […] Mock treatment appears also has effects on the NH3 levels.
(§2) For 10 mM BTH treatment, the commercial product Actigard (Syngenta) was first used for foliar spray on the rice plants. Pure BTH chemical […] (Wako) was subsequently used in place of Actigard. One mM of BTH and INA solutions were prepared in 0.05% Tween 20 for foliar spray.
(§3) Leaf samples were collected and frozen immediately in liquid nitrogen. Leaf samples were stored at −80° C. until use. Total RNA was extracted using the Trizol reagent (Sigma) according to the manufacturer's instruction. RNA was reverse-transcribed using reverse transcriptase Superscript (Invitrogen). Approximately 10 μg of RNA was used for each reverse transcription. RT-PCR was first performed with primers targeting an actin gene as the reference. An equal amount of cDNA input was then used for RT-PCR for NH3 or defense-related genes. RT-PCR for NH3 used primers NH3-RT1 (5′[…]3′; SEQ ID NO:29) and NH3-RT2 (5′[…]3; SEQ ID NO:30). RT-PCR for NTAP-NH3 used primers NH3-2 (5′[…]3; SEQ ID NO:31) and NTAP-5 (5′[…]3; SEQ ID NO:32). RT-PCR for NH1 used primers NH1-RT1 (5′[…]3; SEQ ID NO:33) and NH1-TAP2 (5′[…]3; SEQ ID NO:34). Genes PR1a (Os07g03710) and PR10 (Os12g36830) as markers for plants defense have been described before (Park et al., 2008).
(§4) Quantitative real time PCR were performed on a Bio-Rad CFX96 Real-Time System coupled to a C1000 Thermal Cycler (Bio-Rad). […]

Data set [2] relates to PR10. Description: RT-PCR / real-time qPCR of PR10 after foliar spray. Type of data set: in vivo, Oryza sativa L.
Description: as §1, §2, §3
Quantitative real time PCR were performed on a Bio-Rad CFX96 Real-Time System coupled to a C1000 Thermal Cycler (Bio-Rad). For qPCR reactions, the Bio-Rad SsoFast EvaGreen Supermix was used. QPCR primers used are as follows: Actin-Q1 ([…]; SEQ ID NO:35) and Actin-Q2 ([…]; SEQ ID NO:36) for actin gene; NH1-RT3 (CTGATCCGTTTCCCTCGGA; SEQ ID NO:37) and NH1-RT4 ([…]; SEQ ID NO:38) for the NH1 gene; NH3-RT3 ([…]; SEQ ID NO:39) and NH3-RT4 ([…]; SEQ ID NO:40) for the NH3 gene; PR3-1 ([…]; SEQ ID NO:41) and PR3-2 ([…]; SEQ ID NO:42) for the PR3 gene; POX8.1-1 ([…]; SEQ ID NO:43) and POX8.1-2 (CATGGGCTTCCTGATCTG; SEQ ID NO:44) for the POX8.1 gene; and POX22.3-1 (ATCGTGTCGACGACGACAT; SEQ ID NO:45) and POX22.3-2 ([…]; SEQ ID NO:46) for the POX22.3 gene. QPCR reactions were run at 56° C. annealing for 12 sec and 95° C. for 8 sec for 40 cycles.
Background: Real-time PCR tracks product formation cycle by cycle.

Data set [3] has as its system NH1. Description: RT-PCR / real-time qPCR of NH1 after foliar spray. Type of data set: in vivo, Oryza sativa L. The settings on record: 1 mM BTH.
Description: as §1, §2, §3, §4

In data set [4] the test system is NH3. Description: RT-PCR / real-time qPCR of NH3 after foliar spray. Type of data set: in vivo, Oryza sativa L.
Description: as §1, §2, §3, §4

The test system of data set [5] is peroxidase genes POX8.1 and POX22.3. Description: RT-PCR / real-time qPCR of peroxidase genes after foliar spray. Type of data set: in vivo, Oryza sativa L.
Description: as §1, §2, §3, §4

The subject of data set [6] is rice plants (nNT-NH3, NTAP control, Kit). The settings on record: for lesion mimic spots / bleached areas on leaves: 1 mM foliar spray, one week.
Data set [7] has as its system PR1a. Description: RT-PCR / real-time qPCR of PR1a after foliar spray. Type of data set: in vivo, Oryza sativa L. As to conditions: 1 mM INA, Kit plants.
Description: as §1, §2
Leaf samples were collected and frozen immediately in liquid nitrogen. Leaf samples were stored at −80° C. until use. Total RNA was extracted using the Trizol reagent (Sigma) according to the manufacturer's instruction. […]
as §4

The mark [8] stands for this setting: 1 mM BTH, both Kit and nNT-NH3 plants.

The structures appear in SMILES notation. Where two headings read alike, the source gives them in different places. A value given as a limit tells only on which side of the number the result lay.

Consider `c1ccc2snnc2c1` [BTH, benzothiadiazole], for which, in data set [1] (Kit plants), the PR3 expression induction entry was “up to 2 fold”. Moreover, in data set [1] (nNT-NH3 plants), the PR3 expression induction result is recorded as “up to 10 fold”. The PR10 expression induction entry in data set [2] (1 mM BTH, Kit plants) was “up to 2 fold”. In data set [2] (1 mM BTH, nNT-NH3 plants), the “PR10 expression induction over untreated Kit” value was not above 12 fold and the “PR10 expression induction over untreated nNT-NH3” value is reported as “up to 51 fold”. For the same molecule, the NH1 expression levels entry in data set [3] (Kit plants) was “relatively unchanged”. The “NH1 level induction compared to untreated Kit” value in data set [3] (nNT-NH3 plants, one day after treatment) amounted to 2 fold. Moreover, in data set [3] (nNT-NH3 plants, one day after treatment, vs untreated nNT-NH3), the NH1 level induction entry is “about 3.5 fold”. Besides, the NH3 transcript levels entry in data set [4] (1 mM BTH, Kit control plants, especially day 4 and day 8) was “slightly reduced”. Also, in data set [4] (1 mM BTH, nNT-NH3 plants), the NH3 levels entry is on record as “further modestly induced at day 1”. Moreover, in data set [5] (setting [8]), the POX8.1 expression result is on record as “significantly induces” and the POX22.3 expression entry is recorded as “significantly induces”. In addition, the “lesion mimic spots / bleached areas on leaves” value in data set [6] (Kit control plants) was “developed no lesion mimic spots at all”. In data set [6] (10 mM foliar spray, NTAP control plants (Ubi-1 promoter)), the cell death phenotype entry was “completely clear of such cell death phenotype”. Besides, the “time to dry-out of whole leaves” value in data set [6] (10 mM foliar spray, nNT-NH3 plants) lay in the range of 3 to 4 days.

For the molecule `O=C(O)c1cc(Cl)nc(Cl)c1` [INA, 2,6-dichloroisonicotinic acid], in data set [7], the PR1a expression result is “slightly induces”. The PR3 expression result in data set [1] (1 mM INA, Kit plants) was “slightly induces”. Moreover, the PR10 expression result in data set [2] (1 mM INA, Kit plants) was “slightly induces”. For the same molecule, the “levels of NH3 expression” value in data set [4] (1 mM INA) is recorded as “slightly reduces”. Moreover, the POX expression entry in data set [5] (1 mM INA, Kit and nNT-NH3 plants) was “induces”. Also, the “lesion mimic spots / bleached areas on leaves” value was “little effects” in data set [6] (Kit control plants) and “developed typical lesion-mimic spots, but no bleached areas on leaves” in data set [6] (nNT-NH3 plants).
